Test results published in EPA's ToxValDB 9.5.
In brackets after ≈: the same amount, converted by molar mass. Several values for one entry are separate records, joined by “and”; a condition that tells them apart may be missing. Identical values can stand only once.

Legend:
Ovis sp. = conditions: subchronic; oral; diet; F; no effects
Anas platyrhynchos = conditions: short-term; oral; feed; mortality
Oryctolagus sp. = conditions: for NOAEL: reproduction developmental; for LEL: no effects
Pontoscolex corethrurus = conditions: for LC50: acute, mortality
Daphnia magna = conditions: acute; mortality
Bovidae = conditions: oral; for LEL: no effects
Gallus gallus = conditions: for LEL: subchronic
Sus scrofa = conditions: Not specified; for LEL: oral
Anabaena flosaquae = conditions: acute; duration: 72 hours; biomass
Bibionidae = conditions: chronic/long-term; duration: 28 days; seedling emergence
Capra sp. = conditions: subchronic; no effects
Numida meleagris = conditions: subchronic; duration: 85 days; no effects
Plant = conditions: not reported; other
Canidae = conditions: chronic; duration: 2 years; oral; Dog Other; ophthalmoscopic examination
Carassius carassius = conditions: not reported; oral; feed; histopathology: nonneoplastic
Equus caballus = conditions: not reported; neurology
Pelteobagrus fulvidraco = conditions: subchronic; duration: 10 weeks; oral; feed; histopathology: nonneoplastic
Felidae = conditions: short-term; duration: 10 days; oral; diet; Cat; no effects
Oncorhynchus mykiss = conditions: acute; duration: 3 days; oral; capsule; no effects
[1] = subchronic, duration: 57 days, diet

Clc1ccc(C(c2ccccc2Cl)C(Cl)Cl)cc1 (stereo not given) [1-(2-Chlorophenyl)-1-(4-chlorophenyl)-2,2-dichloroethane]
LEL (Ovis sp.): 0.3 mg/kg-day

c1nc[nH]n1 [1H-1,2,4-Triazole]
LC50 (Anas platyrhynchos): > 1350 mg/kg-day | LC50 (Colinus virginianus; acute, oral, diet, mortality): > 1410 mg/kg-day | NOAEL (Oryctolagus sp.; body weight): 30 mg/kg-day | NOAEL (Rattus norvegicus; chronic, duration: 12 months, body weight): 6.9 mg/kg-day | NOAEL (Rattus norvegicus; reproduction developmental): 17 mg/kg-day (2×) and 30 mg/kg-day (2×)

C/C=C(\C)C(=O)O [2-Butenoic acid, 2-methyl-, (2E)-]
LC50 (Pontoscolex corethrurus): 2010 mg/kg

CC1=C(/C=C/C(C)=C/C=C/C(C)=C/C=C/C=C(C)/C=C/C=C(C)/C=C/C2=C(C)C(=O)[C@@H](O)CC2(C)C)C(C)(C)C[C@H](O)C1=O [3,3'-Dihydroxy-beta-carotene-4,4'-dione]
NOAEL (Mus musculus; chronic, duration: 80 weeks, oral, body weight): 14 mg/kg-day

CC=Cc1ccc(OC)c(OC)c1 [4-Prop-1-enylveratrole]
NOAEL (repeat dose other): 6 mg/kg-day | NOAEL (Rattus norvegicus; short-term, duration: 28 days, oral, organ weight): 100 mg/kg-day

CC/C=C\CCOC(C)OCC (stereo not drawn) [Acetaldehyde ethyl cis-3-hexenyl acetal]
LC50 (Daphnia magna): 12 µg/mL (≈ 69.7 µM) | LC50 (Pontoscolex corethrurus): 238 mg/kg

CC(C)(c1ccc(O)cc1)c1ccc(O)cc1 [Bisphenol A]
NOAEL (Mus musculus; reproduction developmental, M/F, CD1, organ weight): 5 mg/kg-day

O=c1c(CO)c/c(=N/Nc2ccc(S(=O)(=O)[O-])c3ccccc23)c(=O)/c1=N/Nc1ccc(S(=O)(=O)[O-])c2ccccc12.[Na+].[Na+] [Chocolate Brown HT]
NOAEL (Mus musculus; chronic, duration: 80 weeks, oral, diet, M/F, histopathology: nonneoplastic): 143 mg/kg-day

CSCCC(O)C(=O)[O-].CSCCC(O)C(=O)[O-].[Cu+2] (stereo not given) [Copper, bis[2-(hydroxy-?O)-4-(methylthio)butanoato-?O]-]
LEL (Bovidae; [1]): 45 mg/kg-day | LEL (Gallus gallus; duration: 8 weeks, oral, diet, clinical chemistry): 75 mg/kg-day | LEL (Gallus gallus; duration: 35 days, oral, diet, M, other): 500 mg/kg-day | LEL (Sus scrofa; subchronic, duration: 42 days, diet, body weight): 340 mg/kg-day

N#CC(c1ccc(Cl)cc1)c1c(Cl)cc(-n2ncc(=O)[nH]c2=O)cc1Cl (stereo not given) [Diclazuril]
NOEC (repeat dose other, other): > 1 mg/kg-day | NOEC (Anabaena flosaquae): > 10.3 µg/L | NOEC (Bibionidae): 13.3 mg/kg | LEL (Bovidae; acute, duration: 3 days): ≤ 5 mg/kg-day | LEL (Capra sp.): ≤ 80 mg/kg | LEL (Gallus gallus; duration: 37 days, no effects): 25 mg/kg-day | NOAEL (Mus musculus; chronic, duration: 2 years, M, histopathology: nonneoplastic): 2.9 mg/kg-day | LEL (Numida meleagris): ≤ 25 mg/kg | LEL (Oryctolagus sp.; repeat dose other, F): 6 mg/kg-day | LEL (Oryctolagus sp.; subchronic, duration: 35 days, oral, diet, M/F, New Zealand): 6 mg/kg-day | NOEC (Plant): 50.3 mg/kg | NOEC (Pontoscolex corethrurus; chronic/long-term, reproduction): 50 mg/kg | LEL (Sus scrofa; acute, duration: 3 days, no effects): 10 mg/kg-day

C/C=C/C(=O)Oc1ccccc1[N+](=O)[O-].CCCCCCCC.O=NO [Dinocap]
LD50 (Anas platyrhynchos): 367 mg/kg-day | NOAEL (Canidae): 0.4 mg/kg-day | LD50 (Colinus virginianus; acute, oral, mortality): > 2150 mg/kg-day | NOEL (Colinus virginianus; reproduction developmental, reproduction): 27.5 mg/kg-day | NOAEL (Oryctolagus sp.; oral): 3 mg/kg-day

CC(=O)Sc1cc(C)oc1C [Ethanethioic acid, S-(2,5-dimethyl-3-furanyl) ester]
NOAEL (subchronic, duration: 90 days): 0.73 mg/kg-day | NOAEL (Rattus norvegicus; subchronic, duration: 90 days): 0.73 mg/kg-day

CCCC[C@@H](C)[C@@H](OC(=O)C[C@@H](CC(=O)O)C(=O)O)[C@H](C[C@@H](C)C[C@H](O)CCCC[C@@H](O)C[C@H](O)[C@H](C)N)OC(=O)C[C@@H](CC(=O)O)C(=O)O [Fumonisin B1]
LOAEL (Bovidae; chronic, duration: 253 days, diet, M, histopathology: nonneoplastic): 2.4 mg/kg-day | LOAEL (Carassius carassius): 10 mg/kg | LOAEL (Equus caballus): 0.2 mg/kg-day | LOAEL (Gallus gallus; short-term, duration: 21 days, oral, diet, clinical chemistry): 2 mg/kg-day | NOAEL (Pelteobagrus fulvidraco): 20 mg/kg | NOAEL (Rattus norvegicus; subchronic): 0.2 mg/kg-day | LOAEL (Sus scrofa; subchronic, clinical chemistry): 0.2 mg/kg-day

OO [Hydrogen peroxide]
NOAEL (Mus musculus; subchronic, duration: 90 days, oral, drinking water, M/F, food consumption): 100 mg/kg-day

C=CCOC(Cn1ccnc1)c1ccc(Cl)cc1Cl (stereo not given) [Imazalil]
NOAEL (Oryctolagus sp.; food consumption): 10 mg/kg-day | NOAEL (Oryctolagus sp.; histopathology: nonneoplastic): 5 mg/kg-day

CSCCC(O)C(=O)[O-].CSCCC(O)C(=O)[O-].[Mn+2] (stereo not given) [Manganese, bis[2-(hydroxy-?O)-4-(methylthio)butanoato-?O]-]
LEL (Bovidae; [1]): 450 mg/kg-day | LEL (Gallus gallus; duration: 8 weeks, oral, diet, no effects): 450 mg/kg-day | LEL (Sus scrofa; subchronic, duration: 42 days, diet, clinical chemistry): 150 mg/kg-day

Nc1nc(N)nc(N)n1 [Melamine]
LEL (Felidae): 181 mg/kg-day | LEL (Oncorhynchus mykiss): 456 mg/kg-day | NOAEL (Rattus norvegicus; subchronic, duration: 13 weeks, oral): 63 mg/kg-day | LEL (Sus scrofa; acute, duration: 3 days, diet, no effects): 400 mg/kg-day
